Assay results: patent publication US10526336B2, “Fused heteroaryl derivatives as orexin receptor antagonists” (Merck Sharp & Dohme Corp., priority 2014, dated 2020)
pIC50: −log10 of the molar value.

Target: human orexin-2 receptor (Homo sapiens (Human), UniProt O43614)
Assay: FLIPR Ca2+ Flux Assay, orexin-2 receptor antagonism in CHO cells
Assay type: cell-based
Details: CHO cells expressing the human orexin-2 receptor; agonist 70 pM Ala-6,12 orexin-A; read-out: hOX2 FLIPR IC50
Procedure: The utility of the compounds in accordance with the present invention as orexin receptor OX1R and/or OX2R antagonists may be readily determined without undue experimentation by methodology well known in the art, including the “FLIPR Ca^2+ Flux Assay” (Okumura et al., Biochem. Biophys. Res. Comm. 280:976-981, 2001). In a typical experiment the OX1 and OX2 receptor antagonistic activity of the compounds of the present invention was determined in accordance with the following experimental method. For intracellular calcium measurements, Chinese hamster ovary (CHO) cells expressing the rat orexin-1 receptor or the human orexin-2 receptor, are grown in Iscove's modified DMEM containing 2 mM L-glutamine, […], 1% hypoxanthine-thymidine supplement, 100 U/ml penicillin, 100 μg/ml streptomycin and 10% heat-inactivated fetal calf serum (FCS). The cells are seeded at 20,000 cells/well into Becton-Dickinson black 384-well clear bottom sterile plates coated with poly-D-lysine. All reagents are from GIBCO-Invitrogen Corp. The seeded plates are incubated overnight at 37° C. and 5% CO2. Ala-6,12 human orexin-A as the agonist is prepared as a 1 mM stock solution in 1% bovine serum albumin (BSA) and diluted in assay buffer (HBSS containing 20 mM HEPES, 0.1% BSA and 2.5 mM probenecid, pH7.4) for use in the assay at a final concentration of 70 pM. Test compounds are prepared as 10 mM stock solution in DMSO, then diluted in 384-well plates, first in DMSO, then assay buffer. On the day of the assay, cells are washed 3 times with 100 μl assay buffer and then incubated for 60 min (37° C., 5% CO2) in 60 μl assay buffer containing […] Fluo-4AM ester, 0.02% pluronic acid, and 1% BSA. The dye loading solution is then aspirated and cells are washed 3 times with 100 μl assay buffer. 30 μl of that same buffer is left in each well. Within the Fluorescent Imaging Plate Reader (FLIPR, Molecular Devices), test compounds are added to the plate in a volume of 25 μl, incubated for 5 min and finally 25 μl of agonist is added. Fluorescence is measured for each well at 1 second intervals for 5 minutes and the height of each fluorescence peak is compared to the height of the fluorescence peak induced by 70 pM Ala-6,12 orexin-A with buffer in place of antagonist. For each antagonist, IC50 value (the concentration of compound needed to inhibit 50% of the agonist response) is determined. Alternatively, compound potency can be assessed by a radioligand binding assay (described in Bergman et. al. Bioorg. Med. Chem. Lett. 2008, 18, 1425-1430) in which the inhibition constant (Ki) is determined in membranes prepared from CHO cells expressing either the OX1 or OX2 receptor. The intrinsic orexin receptor antagonist activity of a compound which may be used in the present invention may be determined by these assays.

human orexin-2 receptor, sequence (O43614 whole entry): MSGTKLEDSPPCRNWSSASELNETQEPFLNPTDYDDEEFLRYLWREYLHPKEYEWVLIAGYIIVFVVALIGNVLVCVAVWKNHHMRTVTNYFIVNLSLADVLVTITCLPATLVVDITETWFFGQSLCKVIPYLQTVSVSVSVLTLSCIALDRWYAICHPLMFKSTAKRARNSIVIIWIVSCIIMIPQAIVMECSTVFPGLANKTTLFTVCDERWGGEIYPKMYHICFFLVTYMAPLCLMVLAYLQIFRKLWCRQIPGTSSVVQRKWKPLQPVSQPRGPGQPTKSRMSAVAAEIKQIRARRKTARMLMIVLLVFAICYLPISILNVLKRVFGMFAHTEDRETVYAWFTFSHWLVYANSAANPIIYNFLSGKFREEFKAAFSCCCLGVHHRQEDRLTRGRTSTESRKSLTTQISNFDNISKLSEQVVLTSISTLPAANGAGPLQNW

How did the pIC50 turn out when `Cc1cn2ccnc(O[C@@H]3CC[C@@H](C)N(C(=O)c4ccsc4-c4ncccn4)C3)c2n1` [Example 14, ((2R,5R)-2-methyl-5-((2-methylimidazo[1,2-α]pyrazin-8-yl)oxy)piperidin-1-yl) (2-(pyrimidin-2-yl)thiophen-3-yl)methanone] was run?
The pIC50 was 7.43.

With `Cc1cn2ccnc(O[C@@H]3CC[C@@H](C)N(C(=O)c4cccnc4OCC(F)F)C3)c2n1` [Example 15, (2-(2,2-difluoroethoxy)pyridin-3-yl)((2R,5R)-2-methyl-5-((2-methylimidazo[1,2-a]pyrazin-8-yl)oxy)piperidin-1-yl)methanone] as the molecule, how does the pIC50 read?
The pIC50 was 7.38.

`Cc1cn2ccnc(O[C@@H]3CC[C@@H](C)N(C(=O)c4cccnc4OCC(F)(F)F)C3)c2n1` [Example 16, ((2R,5R)-2-methyl-5-((2-methylimidazo [1,2-α]pyrazin-8-yl)oxy)piperidin-1-yl) (2-(2,2,2-trifluoroethoxy)pyridin-3-yl)methanone] was tested. Which pIC50 did it give?
Its pIC50 is 7.47.

`Cc1cn2ccnc(O[C@@H]3CC[C@@H](C)N(C(=O)c4cccnc4-c4ccccc4)C3)c2n1` [Example 17, ((2R,5R)-2-methyl-5-((2-methylimidazo [1,2-α]pyrazin-8-yl)oxy)piperidin-1-yl) (2-phenylpyridin-3-yl)methanone] was tested. Which pIC50 did it give?
Its pIC50 is 7.16.

How did the pIC50 turn out when `Cc1cn2ccnc(O[C@@H]3CC[C@@H](C)N(C(=O)c4cccnc4-n4cccn4)C3)c2n1` [Example 18, (2-(1H-pyrazol-1-yl)pyridin-3-yl) ((2R,5R)-2-methyl-5-((2-methylimidazo[1,2-α]pyrazin-8-yl)oxy)piperidin-1-yl)methanone] was run?
Its pIC50 is 7.23.

How did the pIC50 turn out when `Cc1cn2ccnc(N[C@@H]3CC[C@@H](C)N(C(=O)c4ccccc4-n4nccn4)C3)c2n1` [Example 19, (2-(2H-1,2,3-triazol-2-yl)phenyl)((2R,5R)-2-methyl-5-((2-methylimidazo[1,2-a]pyrazin-8-yl)amino)piperidin-1-yl)methanone] was run?
The pIC50 was 7.29.

With `CC(C)c1cn2ccnc(O[C@@H]3CC[C@@H](C)N(C(=O)c4ccccc4-n4nccn4)C3)c2n1` [Example 20, (2-(2H-1,2,3-triazol-2-yl)phenyl)((2R,5R)-5-((2-isopropylimidazo[1,2-a]pyrazin-8-yl)oxy)-2-methylpiperidin-1-yl)methanone] as the molecule, how does the pIC50 read?
The pIC50 was 7.31.

`C[C@@H]1CC[C@@H](Oc2nccn3cc(C(F)(F)F)nc23)CN1C(=O)c1ccccc1-n1nccn1` [Example 21, (2-(2H-1,2,3-triazol-2-yl)phenyl)((2R,5R)-2-methyl-5-((2-(trifluoromethyl)imidazo[1,2-a]pyrazin-8-yl)oxy)piperidin-1-yl)methanone] was tested. Which pIC50 did it give?
Its pIC50 is 7.20.

With `C[C@@H]1CC[C@@H](Nc2nccn3cc(C(F)(F)F)nc23)CN1C(=O)c1ccccc1-n1nccn1` [Example 22, (2-(2H-1,2,3-triazol-2-yl)phenyl)((2R,5R)-2-methyl-5-((2-(trifluoromethyl)imidazo[1,2-a]pyrazin-8-yl)amino)piperidin-1-yl)methanone] as the molecule, how does the pIC50 read?
Its pIC50 is 7.34.

How did the pIC50 turn out when `C[C@@H]1CC[C@@H](Nc2nccn3cc(C(F)(F)F)nc23)CN1C(=O)c1ccsc1-n1nccn1` [Example 23, (2-(2H-1,2,3-triazol-2-yl)thiophen-3-yl) ((2R,5R)-2-methyl-5-((2-(trifluoromethyl)imidazo[1,2-α]pyrazin-8-yl)amino)piperidin-1-yl)methanone] was run?
Its pIC50 is 7.00.

How did the pIC50 turn out when `C[C@@H]1CC[C@@H](Oc2nccn3cc(C#N)nc23)CN1C(=O)c1ccccc1-n1nccn1` [Example 24, 8-(((3R,6R)-1-(2-(2H-1,2,3-triazol-2-yl)benzoyl)-6-methylpiperidin-3-yl)oxy)imidazo[1,2-a]pyrazine-2-carbonitrile] was run?
Its pIC50 is 7.05.

`C[C@@H]1CC[C@@H](Oc2nccn3cc(CO)nc23)CN1C(=O)c1ccccc1-n1nccn1` [Example 25, (2-(2H-1,2,3-triazol-2-yl)phenyl)((2R,5R)-5-((2-(hydroxymethyl)imidazo[1,2-a]pyrazin-8-yl)oxy)-2-methylpiperidin-1-yl)methanone] was tested. Which pIC50 did it give?
The pIC50 was 7.31.

How did the pIC50 turn out when `C[C@@H]1CC[C@@H](Oc2nccn3c(Cl)cnc23)CN1C(=O)c1ccccc1-n1nccn1` [Example 26, (2-(2H-1,2,3-triazol-2-yl)phenyl)((2R,5R)-5-((3-chloroimidazo[1,2-a]pyrazin-8-yl)oxy)-2-methylpiperidin-1-yl)methanone] was run?
Its pIC50 is 7.92.

How did the pIC50 turn out when `C[C@@H]1CC[C@@H](Oc2nccn3c(Cl)cnc23)CN1C(=O)c1ccccc1-n1ncnn1` [Example 27, (2-(2H-tetrazol-2-yl)phenyl) ((2R,5R)-5-((3-chloroimidazo[1,2-α]pyrazin-8-yl)oxy)-2-methylpiperidin-1-yl)methanone] was run?
The pIC50 was 8.04.

`C[C@@H]1CC[C@@H](Oc2nccn3c(Cl)cnc23)CN1C(=O)c1ccccc1C1(C#N)CC1` [Example 28, 1-(2-((2R,5R)-5-((3-chloroimidazo[1,2-α]pyrazin-8-yl)oxy)-2-methylpiperidine-1-carbonyl)phenyl) cyclopropanecarbonitrile] was tested. Which pIC50 did it give?
Its pIC50 is 8.02.

With `C[C@@H]1CC[C@@H](Oc2nccn3c(Cl)cnc23)CN1C(=O)c1ccsc1-n1nccn1` [Example 29, (2-(2H-1,2,3-triazol-2-yl)thiophen-3-yl)((2R,5R)-5-((3-chloroimidazo[1,2-α]pyrazin-8-yl)oxy)-2-methylpiperidin-1-yl)methanone] as the molecule, how does the pIC50 read?
The pIC50 was 7.84.

How did the pIC50 turn out when `C[C@@H]1CC[C@@H](Nc2nccn3c(Cl)cnc23)CN1C(=O)c1ccccc1-n1nccn1` [Example 30, (2-(2H-1,2,3-triazol-2-yl)phenyl)((2R,5R)-5-((3-chloroimidazo[1,2-a]pyrazin-8-yl)amino)-2-methylpiperidin-1-yl)methanone] was run?
The pIC50 was 7.86.

With `C[C@@H]1CC[C@@H](Nc2nccn3c(Cl)cnc23)CN1C(=O)c1ccccc1-c1ncccn1` [Example 31, ((2R,5R)-5-((3-chloroimidazo[1,2-a]pyrazin-8-yl)amino)-2-methylpiperidin-1-yl)(2-(pyrimidin-2-yl)phenyl)methanone] as the molecule, how does the pIC50 read?
The pIC50 was 7.63.

With `C[C@@H]1CC[C@@H](Oc2nccn3c(F)cnc23)CN1C(=O)c1ccccc1-n1nccn1` [Example 32, (2-(2H-1,2,3-triazol-2-yl)phenyl)((2R,5R)-5-((3-fluoroimidazo[1,2-a]pyrazin-8-yl)oxy)-2-methylpiperidin-1-yl)methanone] as the molecule, how does the pIC50 read?
The pIC50 was 7.90.

With `C[C@@H]1CC[C@@H](Oc2nccn3c(Br)cnc23)CN1C(=O)c1ccccc1-n1nccn1` [Example 33, (2-(2H-1,2,3-triazol-2-yl)phenyl)((2R,5R)-5-((3-bromoimidazo[1,2-a]pyrazin-8-yl)oxy)-2-methylpiperidin-1-yl)methanone] as the molecule, how does the pIC50 read?
Its pIC50 is 8.05.

How did the pIC50 turn out when `Cc1cnc2c(O[C@@H]3CC[C@@H](C)N(C(=O)c4ccccc4-n4nccn4)C3)nccn12` [Example 34, (2-(2H-1,2,3-triazol-2-yl)phenyl)((2R,5R)-2-methyl-5-((3-methylimidazo[1,2-a]pyrazin-8-yl)oxy)piperidin-1-yl)methanone] was run?
Its pIC50 is 7.79.

How did the pIC50 turn out when `C[C@@H]1CC[C@@H](Oc2nccn3c(C#N)cnc23)CN1C(=O)c1ccccc1-n1nccn1` [Example 35, 8-(((3R,6R)-1-(2-(2H-1,2,3-triazol-2-yl)benzoyl)-6-methylpiperidin-3-yl)oxy)imidazo[1,2-a]pyrazine-3-carbonitrile] was run?
Its pIC50 is 7.13.

`C=Cc1cnc2c(O[C@@H]3CC[C@@H](C)N(C(=O)c4ccccc4-n4nccn4)C3)nccn12` [Example 36, (2-(2H-1,2,3-triazol-2-yl)phenyl)((2R,5R)-2-methyl-5-((3-vinylimidazo[1,2-a]pyrazin-8-yl)oxy)piperidin-1-yl)methanone] was tested. Which pIC50 did it give?
The pIC50 was 7.68.

How did the pIC50 turn out when `CCc1cnc2c(O[C@@H]3CC[C@@H](C)N(C(=O)c4ccccc4-n4nccn4)C3)nccn12` [Example 37, (2-(2H-1,2,3-triazol-2-yl)phenyl)((2R,5R)-5-((3-ethylimidazo[1,2-a]pyrazin-8-yl)oxy)-2-methylpiperidin-1-yl)methanone] was run?
The pIC50 was 7.53.

`C[C@@H]1CC[C@@H](Oc2nccn3c(C(F)F)cnc23)CN1C(=O)c1ccccc1-n1nccn1` [Example 38, (2-(2H-1,2,3-triazol-2-yl)phenyl)((2R,5R)-5-((3-(difluoromethyl)imidazo[1,2-a]pyrazin-8-yl)oxy)-2-methylpiperidin-1-yl)methanone] was tested. Which pIC50 did it give?
The pIC50 was 7.75.
